Common to all, as to format: in vivo, souris
Experiment [1] relates to modèle murin de maladie d'Alzheimer par administration du peptide amyloïde β25-35. In words: Spontaneous alternation test in the Y-maze (spatial working memory), Aβ25-35 mouse model. Conditions: all doses tested (12,5, 25, 50 mg/kg per day IP), day 8, Aβ25-35 9 nmol ICV. The source says:
Soixante-douze souris males Swiss (30-35 grammes) sont utilisées. Six groupes sont constitués et soumis à différents traitements : Tableau 1. Groupes de traitement.
(§1) Le 1^er jour : une version « mélangée » (scrambled) du peptide amyloïde β25-35 (Sc.Aβ, témoin négatif) ou le peptide amyloïde β25-35 (Aβ25-35) est injecté par voie intra-cérébroventriculaire (ICV) (le peptide Aβ25-35 provoque l'intoxication cellulaire). Entre le 1^er jour et le 10^ème jour, les traitements sont administrés une fois par jour par voie intrapéritonéale (IP).
Du 8^ème au 10^ème jour, deux tests comportementaux sont effectués : • Procédure d'alternance spontanée dans le labyrinthe en Y (évaluation de la mémoire spatiale de travail) le 8^ème jour, soit 7 jours après l'injection de peptide; • Réponse d'évitement passif (évaluation de la mémoire contextuelle à long terme) avec l'entrainement le 9^ème jour et la séance de rétention le 10^ème jour.
Chaque souris est anesthésiée avec 2,5% d"isoflurane. Le peptide Aβ25-35 (9 nmol/souris) ou le peptide Sc.Aβ (9 nmol/souris) est injecté par voir ICV, dans un volume final de 3 µL/souris. […]

For experiment [2] the test system is unchanged. In words: Passive avoidance test (long-term contextual memory), retention session, Aβ25-35 mouse model. As to conditions: Aβ25-35 9 nmol ICV, day 10.
Excerpt: as §1

A further experiment relates to Bcl2. Kind of experiment: ELISA of Bcl2 in mouse hippocampus after Aβ25-35.
Excerpt: as §1
(§2) A la fin de la session de rétention d'évitement passif, le 10^ème jour, les animaux sont sacrifiés par décapitation. L'hippocampe et le cortex frontal sont disséqués et congelés dans l'azote liquide. L'hippocampe est utilisé pour mesurer le taux de peroxydation lipidique à l'aide d'une méthode colorimétrique et pour évaluer les taux de 4 marqueurs biochimiques par des tests ELISA. Le cortex est conservé à -80°C en attente d'analyses supplémentaires. Les plasmas sont également conservés en attente d'analyses supplémentaires. Les échantillons biologiques sont jetés après 3 mois.
(§3) Pour tous les dosages, les […] sont homogénéisés, après décongélation, dans un tampon Tris (Tris 50 mM, 150 mM NaCl, pH 7,5) et traités par ultrasons pendant 20 secondes. […] Pour chaque dosage, l'absorbance est lue à 450 nm et la concentration est calculée en utilisant la courbe standard. Les résultats sont exprimés en pg ou ng de marqueur par mg de tissu et en pourcentage de solution Sc.Aβ + véhicule. 6 échantillons par groupe (n = 36 kits ELISA) sont dosés en double.

Another experiment has as its system Caspase-3. Kind of experiment: ELISA of Caspase-3 in mouse hippocampus after Aβ25-35.
Excerpt: as §1, §2, §3

In the next experiment the test system is GFAP. Kind of experiment: ELISA of GFAP in mouse hippocampus after Aβ25-35.
Excerpt: as §1, §2, §3
For orientation: An ELISA detects its analyte on a solid surface through an enzyme-linked reagent.

Setting [3] is: Aβ25-35/Etifoxine 12.5 mg/kg IP.

Consider one compound from patent publication EP3454861B1, “BENZOXAZINE OR QUINAZOLINE DERIVATIVES FOR USE IN THE TREATMENT OF ALZHEIMER'S DISEASE” (Biocodex, priority 2016, dated 2017).

With `CCNC1=Nc2ccc(Cl)cc2C(C)(c2ccccc2)O1` (stereo not shown) [Etifoxine, chlorhydratede 6-chloro-2-éthylamino-4-méthyl-4-phényl-4H-[3,1]benzoxazine], the “déficits d'apprentissage (alternance spontanée, mémoire spatiale)” value in experiment [1] is reported as “atténue de façon significative les déficits d'apprentissage”. In addition, the “temps de fuite lors de la session de rétention, Moyenne” value in experiment [2] (Etifoxine 25 mg/kg IP once daily) is recorded as 22,4 ± 2,4%; in experiment [2] (Etifoxine 50 mg/kg IP once daily), 21,6 ± 3,0%. Further, in experiment [2] (Etifoxine 12,5 mg/kg IP once daily), the “temps de latence lors la session de rétention, Moyenne” value was 208,1 ± 17,4%. Moreover, the entries for the “Taux de protéine Bcl2” value with Bcl2 (setting [3]), with Bcl2 (Aβ25-35/Etifoxine 25 mg/kg IP) and in the experiment with Bcl2 (Aβ25-35/Etifoxine 50 mg/kg IP) were 97,2 ± 2,1 % de Sc.Aβ/V, 99,4 ± 2,3 % de Sc.Aβ/V and 102,3 ± 3,2 % de Sc.Aβ/V, respectively. The “Expression CASP-3” value is 136,8 ± 7,2 % de Sc.Aβ/V in the experiment on Caspase-3 (setting [3]), 127,3 ± 10,8 % de Sc.Aβ/V in the experiment with Caspase-3 (Aβ25-35/Etifoxine 25 mg/kg IP) and 109,9 ± 5,6 % de Sc.Aβ/V in the experiment on Caspase-3 (Aβ25-35/Etifoxine 50 mg/kg IP). Moreover, the “Expression GFAP” value in the experiment on GFAP (setting [3]) is 160,4 ± 10,2 % de Sc.Aβ/V; with GFAP (Aβ25-35/Etifoxine 25 mg/kg IP), 131,7 ± 4,3 % de Sc.Aβ/V; in the experiment on GFAP (Aβ25-35/Etifoxine 50 mg/kg IP) it was 129,8 ± 2,7 % de Sc.Aβ/V.
